In patent publication US9133228B2, “Guanidinyl-substituted polyamides useful for treating human papilloma virus” (Nanovir, LLC, priority 2011, dated 2015):

Key:
[1] = tested on: sequence of HPV16 (365 bp: 7662-122); test: DNase I footprinting experiment; type: binding, Human papilloma virus; settings: polyamide 2 nM and 5 nM; DNA 200 pM; DMSO and CHAPS; 37° C. for 5-6 hrs
Procedure: FIG. 9 illustrates a footprinting experiment of NV1087 on a sequence of HPV16 (365 bp: 7662-122). All reactions were carried out in presence of DMSO and CHAPS, and the final DNA concentration was 200 pM. The polyamide concentration varied (2 nM and 5 nM). Reactions were incubated with polyamide at 37° C. for 5-6 hrs.

HPV18 = test: Inhibition of viral replication in cells that maintain HPV18 DNA, viral DNA quantified by real-time PCR; type: cell-based, Human papilloma virus
Description: (§1) Table 1a lists a number of exemplary polyamides synthesized in accordance with the present invention. The HPLC/MW values given in Table 1b were obtained using low resolution high pressure liquid chromatography/mass spectrometry (LR HPLC/MS), which provides moderate precision masses of single isotopomers rather than average molecular weights or exact masses. Table 2 presents a summary of measured IC50 values of certain of these polyamides against HPV16, HPV18 and HPV31. The IC50 is the concentration of compound required for 50% inhibition of viral replication in vitro. The polyamides were tested in cells that maintain HPV16, HPV18 or HPV31 DNA. Cells maintaining the selected HPV were cultured for 72 hours in the presence of the polyamide. Viral DNA was then quantified using real-time PCR and compared to vehicle (DMSO)-treated control cultures. […] Table 3 presents a summary of measured IC50 and IC90 values of certain of these polyamides against HPV16, HPV18 and HPV31.

HPV16 = test: Inhibition of viral replication in cells that maintain HPV16 DNA, viral DNA quantified by real-time PCR; type: cell-based, Human papilloma virus
Description: as §1

HPV31 = test: Inhibition of viral replication in cells that maintain HPV31 DNA, viral DNA quantified by real-time PCR; type: cell-based, Human papilloma virus
Description: as §1

[2] = cells maintaining HPV18 cultured 72 hours with polyamide, vs DMSO control, highest dose tested 10 μM
[3] = cells maintaining HPV16 cultured 72 hours with polyamide, vs DMSO control, highest dose tested 10 μM
[4] = cells maintaining HPV31 cultured 72 hours with polyamide, vs DMSO control, highest dose tested 10 μM

Row | Compound | protection of DNA from digestion by DNase I (decrease in peak heights) [1] | IC50 (HPV18; [2]) | IC50 (HPV16; [3]) | IC50 (HPV31; [4]) | IC50 (HPV18; Table 3, 72 hours) | IC90 (HPV18; Table 3, 72 hours) | IC50 (HPV16; Table 3, 72 hours) | IC90 (HPV16; Table 3, 72 hours) | IC50 (HPV31; Table 3, 72 hours) | IC90 (HPV31; Table 3, 72 hours)
1 | CN(CCCN)CCCNC(=O)CCNC(=O)c1cc(NC(=O)CCNC(=O)c2cc(NC(=O)c3cc(NC(=O)c4cc(NC(=O)CCNC(=O)c5cc(NC(=O)c6cc(NC(=O)CCNC(=O)c7cc(NC(=O)CCCNC(=O)c8nc(NC(=O)c9cc(NC(=O)CCNC(=O)c%10cc(NC(=O)c%11cc(NC(=O)CCNC(=O)c%12cc(NC(=O)c%13cc(NC(=O)c%14cc(N=C(N(C)C)N(C)C)cn%14C)cn%13C)cn%12C)cn%11C)cn%10C)cn9C)cn8C)cn7C)cn6C)cn5C)cn4C)cn3C)cn2C)cn1C.O=C(O)C(F)(F)F.O=C(O)C(F)(F)F.O=C(O)C(F)(F)F.O=C(O)C(F)(F)F [NV1087, TMG-PyPyPyβPyPyβPyIm-γ-PyβPyPyβPyPyPyβPyβ-Ta•4TFA] | protects the DNA from digestion by DNase I | 24 nM | 31 nM | 16 nM |  |  |  |  |  | 
2 | CN(CCCN)CCCNC(=O)CCNC(=O)c1cc(NC(=O)CCNC(=O)c2cc(NC(=O)c3cc(NC(=O)c4cc(NC(=O)CCNC(=O)c5cc(NC(=O)c6cc(NC(=O)c7cc(NC(=O)CCCNC(=O)c8cc(NC(=O)CCNC(=O)c9cc(NC(=O)c%10cc(NC(=O)CCNC(=O)c%11cc(NC(=O)c%12cc(N=C(N(C)C)N(C)C)cn%12C)cn%11C)cn%10C)cn9C)cn8C)cn7C)cn6C)cn5C)cn4C)cn3C)cn2C)cn1C [NV1097, TMG-PyPyβPyPyβPy-γ-PyPyPyβPyPyPyβPyβ-Ta•3TFA] |  | 257 nM | 70 nM | 40 nM | 257 nM | > 10000 nM | 70 nM | 1410 nM | 40 nM | 10000 nM
3 | CN(CCCN)CCCNC(=O)CCNC(=O)c1cc(NC(=O)CCNC(=O)c2cc(NC(=O)c3cc(NC(=O)c4cc(NC(=O)CCNC(=O)c5cc(NC(=O)c6cc(NC(=O)c7cc(NC(=O)CCCNC(=O)c8cc(NC(=O)CCNC(=O)c9cc(NC(=O)c%10cc(NC(=O)CCNC(=O)c%11cc(NC(=O)c%12cc(NC(=O)c%13cc(N=C(N(C)C)N(C)C)cn%13C)cn%12C)cn%11C)cn%10C)cn9C)cn8C)cn7C)cn6C)cn5C)cn4C)cn3C)cn2C)cn1C [NV1098, TMG-PyPyPyβPyPyβPy-γ-PyPyPyβPyPyPyβPyβ-Ta•3TFA] |  | 17 nM | 11 nM | 24 nM | 17 nM | > 10000 nM | 11 nM | 1360 nM | 24 nM | 549 nM
4 | TMG-PyPyβPyPyβ-γNH2-PyPyPyβPyPyPyβPyβ-Ta•4TFA [NV1095] |  | > 10000 nM | 204 nM | 49 nM |  |  |  |  |  | 
